Experimental data: patent US10105357B2, “Indication of antibiotic drugs for preparation of cancer inhibition pharmaceutical composition” (LAUNX BIOMEDICAL CO., LTD., priority 2014, dated 2018)
Counter-ions that a name gives are not always drawn. Like-named read-outs stand apart in the source and are kept apart here.

Legend:
[1] = system: AGS (Gastric Adenocarcinoma); assay: Cell viability analysis, gastric cancer AGS; type: cell-based, human; settings: for viability at 10 µM: Homo sapiens
[2] = system: Hep3B (hepatocellular carcinoma); assay: Cell viability analysis, hepatic cancer Hep3B; type: cell-based, human
[3] = system: A375 (Amelanotic Melanoma); assay: Cell viability analysis, skin cancer A375; type: cell-based, human; settings: for viability at 10 µM: Homo sapiens
AsPC-1 = assay: Cell viability analysis, pancreatic cancer AsPC-1; type: cell-based, human
[4] = system: BCC (basal cell carcinoma); assay: Cell viability analysis, skin cancer BCC; type: cell-based, human
[5] = system: TSGH-8301 (Urinary Bladder Carcinoma); assay: Cell viability analysis, bladder cancer TSGH-8301; type: cell-based, human; settings: for viability at 10 µM: Homo sapiens
[6] = system: HepG2 (Hepatocellular Carcinoma); assay: Cell viability analysis, hepatic cancer HepG2; type: cell-based, human; settings: for viability at 10 µM: Homo sapiens, HepG2
[7] = system: HI650 (Lung Adenocarcinoma); assay: Cell viability analysis, lung cancer HI650; type: cell-based, human; settings: for viability at 10 µM: Homo sapiens
cancer cell lines = assay: Cell viability analysis (WST-1) on cancer cell lines; type: cell-based, human; settings: drug 10 μM, 72 hours, WST-1; Table 3
BxPC-3 = assay: Cell viability analysis, pancreatic cancer BxPC-3; type: cell-based, human
[8] = system: A549 (Lung Adenocarcinoma); assay: Cell viability analysis, lung cancer A549; type: cell-based, human; settings: for viability at 10 µM: Homo sapiens, A549
[9] = system: 786-O (Renal adenocarcinoma); assay: Cell viability analysis, renal cancer 786-O; type: cell-based, human
[10] = system: LoVo (Colorectal Adenocarcinoma); assay: Cell viability analysis, colon cancer LoVo; type: cell-based, human; settings: for viability at 10 µM: Homo sapiens, LoVo
[11] = system: SAS (Tongue squamous cell carcinoma); assay: Cell viability analysis, tongue cancer SAS; type: cell-based, human
[12] = system: HeLa (Cervix Adenocarcinoma); assay: Cell viability analysis, cervical cancer HeLa; type: cell-based, human; settings: for viability at 10 µM: Homo sapiens, HeLa
[13] = system: MKN-45 (Gastric Adenocarcinoma); assay: Cell viability analysis, gastric cancer MKN-45; type: cell-based, human; settings: for viability at 10 µM: Homo sapiens, MKN-45
[14] = system: PC3 (p53−) (Prostate Adenocarcinoma); assay: Cell viability analysis, prostate cancer PC3; type: cell-based, human; settings: for viability at 10 µM: Homo sapiens
T24 = assay: Cell viability analysis, bladder cancer T24; type: cell-based, human
TOV-21G = assay: Cell viability analysis, ovarian cancer TOV-21G; type: cell-based, human
[15] = system: C-33A (Cervical carcinoma); assay: Cell viability analysis, cervical cancer C-33A; type: cell-based, human
[16] = system: HCT116 (p53+) (Colorectal Carcinoma)
[17] = system: MDA-MB-231 (Mammary Gland, Adenocarcinoma); assay: Cell viability analysis, breast cancer MDA-MB-231; type: cell-based, human
NIH: OVCAR-3 = assay: Cell viability analysis, ovarian cancer NIH: OVCAR-3; type: cell-based, human
[18] = system: MCF7 (Mammary Gland, Adenocarcinoma); assay: Cell viability analysis, breast cancer MCF7; type: cell-based, human; settings: for viability at 10 µM: Homo sapiens
U-2OS = assay: Cell viability analysis, osteosarcoma U-2OS; type: cell-based, human

## CN(C)C(=O)C(CCN1CCC(O)(c2ccc(Cl)cc2)CC1)(c1ccccc1)c1ccccc1 [Loperamide hydrochloride]
[1]; 72 h, AGS, repeated experiment, read-out: The results of antibiotic drug inhibiting cancer cell lines (cell viability analysis), AGS
  viability at 10 µM: 22.2%
[1]; drug 10 μM, 72 hours, WST-1, OD450 nm, read-out: cell viability (survival rate), AGS
  viability at 10 µM: 57.3%
[2]; Homo sapiens, Hep3B, 72 h, read-out: The results of antibiotic drug inhibiting cancer cell lines (cell viability analysis), Hep3B
  viability at 10 µM: 50.2%
[3]; A-375, 72 h, A375, repeated experiment, read-out: The results of antibiotic drug inhibiting cancer cell lines (cell viability analysis), A375
  viability at 10 µM: 34.3%
[3]; A-375, drug 10 μM, 72 hours, WST-1, OD450 nm, read-out: cell viability (survival rate), A375
  viability at 10 µM: 58.8%
AsPC-1; Homo sapiens, ASPC1, 72 h, read-out: The results of antibiotic drug inhibiting cancer cell lines (cell viability analysis), AsPC-1
  viability at 10 µM: 47.5%
[4]; Homo sapiens, 72 h, read-out: The results of antibiotic drug inhibiting cancer cell lines (cell viability analysis), BCC
  viability at 10 µM: 51.5%
[5]; 72 h, TSGH-8301, repeated experiment, read-out: The results of antibiotic drug inhibiting cancer cell lines (cell viability analysis), TSGH-8301
  viability at 10 µM: 42.9%
[5]; drug 10 μM, 72 hours, WST-1, OD450 nm, read-out: cell viability (survival rate), TSGH
  viability at 10 µM: 42.7%
[6]; 72 h, repeated experiment, read-out: The results of antibiotic drug inhibiting cancer cell lines (cell viability analysis), HepG2
  viability at 10 µM: 35.8%
[6]; drug 10 μM, 72 hours, WST-1, OD450 nm, read-out: cell viability (survival rate), HepG2
  viability at 10 µM: 103%
[7]; NCI-H1650, 72 h, H1650, repeated experiment, read-out: The results of antibiotic drug inhibiting cancer cell lines (cell viability analysis), H1650
  viability at 10 µM: 41.3%
[7]; NCI-H1650, drug 10 μM, 72 hours, WST-1, OD450 nm, read-out: cell viability (survival rate), H1650
  viability at 10 µM: 66.7%
Cancer cell lines
  inhibition effect on different cancer cell lines: significant inhibition effect
BxPC-3; Homo sapiens, BXPC-3, 72 h, read-out: The results of antibiotic drug inhibiting cancer cell lines (cell viability analysis), BxPC-3
  viability at 10 µM: 35.7%
[8]; 72 h, repeated experiment, read-out: The results of antibiotic drug inhibiting cancer cell lines (cell viability analysis), A549
  viability at 10 µM: 26.2%
[8]; drug 10 μM, 72 hours, WST-1, OD450 nm, read-out: cell viability (survival rate), A549
  viability at 10 µM: 104%
[9]; Homo sapiens, 786-0, 72 h, read-out: The results of antibiotic drug inhibiting cancer cell lines (cell viability analysis), 786-O
  viability at 10 µM: 40.9%
[10]; 72 h, repeated experiment, read-out: The results of antibiotic drug inhibiting cancer cell lines (cell viability analysis), LoVo
  viability at 10 µM: 49.3%
[10]; drug 10 μM, 72 hours, WST-1, OD450 nm, read-out: cell viability (survival rate), LoVo
  viability at 10 µM: 64.8%
[11]; Homo sapiens, 72 h, read-out: The results of antibiotic drug inhibiting cancer cell lines (cell viability analysis), SAS
  viability at 10 µM: 31.8%
[12]; 72 h, repeated experiment, read-out: The results of antibiotic drug inhibiting cancer cell lines (cell viability analysis), HeLa
  viability at 10 µM: 36.8%
[12]; drug 10 μM, 72 hours, WST-1, OD450 nm, read-out: cell viability (survival rate), HeLa
  viability at 10 µM: 73%
[13]; 72 h, repeated experiment, read-out: The results of antibiotic drug inhibiting cancer cell lines (cell viability analysis), MKN-45
  viability at 10 µM: 61.5%
[13]; drug 10 μM, 72 hours, WST-1, OD450 nm, read-out: cell viability (survival rate), MKN-45
  viability at 10 µM: 64.3%
[14]; 72 h, PC-3, repeated experiment, read-out: The results of antibiotic drug inhibiting cancer cell lines (cell viability analysis), PC-3
  viability at 10 µM: 41.6%
[14]; drug 10 μM, 72 hours, WST-1, OD450 nm, read-out: cell viability (survival rate), PC3
  viability at 10 µM: 64.7%
T24; Homo sapiens, T-24, 72 h, read-out: The results of antibiotic drug inhibiting cancer cell lines (cell viability analysis), T24
  viability at 10 µM: 73.5%
TOV-21G; Homo sapiens, TOV21G, 72 h, read-out: The results of antibiotic drug inhibiting cancer cell lines (cell viability analysis), TOV-21G
  viability at 10 µM: 24.2%
[15]; Homo sapiens, C-33-A, 72 h, read-out: The results of antibiotic drug inhibiting cancer cell lines (cell viability analysis), C-33A
  viability at 10 µM: 39.6%
[16]
  viability: 47.3%
[17]; Homo sapiens, MDA-MB-231, 72 h, read-out: The results of antibiotic drug inhibiting cancer cell lines (cell viability analysis), MDA-MB231
  viability at 10 µM: 72.5%
NIH: OVCAR-3; Homo sapiens, OVCAR-3, 72 h, read-out: The results of antibiotic drug inhibiting cancer cell lines (cell viability analysis), NIH-OVCAR-3
  viability at 10 µM: 75.5%
[18]; MCF7, 72 h, MCF-7, repeated experiment, read-out: The results of antibiotic drug inhibiting cancer cell lines (cell viability analysis), MCF-7
  viability at 10 µM: 36.2%
[18]; MCF7, drug 10 μM, 72 hours, WST-1, OD450 nm, read-out: cell viability (survival rate), MCF7
  viability at 10 µM: 78.9%
U-2OS; Homo sapiens, U2OS, 72 h, read-out: The results of antibiotic drug inhibiting cancer cell lines (cell viability analysis), U2OS
  viability at 10 µM: 32%

## Cl.c1ccc([C@H]2CN3CCSC3=N2)cc1 [Levamisole Hydrochloride (Ergamisol)]
[1]
  The results of antibiotic drug inhibiting cancer cell lines (cell viability analysis), AGS: 120.5
[2]
  The results of antibiotic drug inhibiting cancer cell lines (cell viability analysis), Hep3B: 121.1
[3]
  The results of antibiotic drug inhibiting cancer cell lines (cell viability analysis), A375: 113.9
AsPC-1
  The results of antibiotic drug inhibiting cancer cell lines (cell viability analysis), AsPC-1: 85.72
[4]
  The results of antibiotic drug inhibiting cancer cell lines (cell viability analysis), BCC: 114.1
[5]
  The results of antibiotic drug inhibiting cancer cell lines (cell viability analysis), TSGH-8301: 106.8
[6]
  The results of antibiotic drug inhibiting cancer cell lines (cell viability analysis), HepG2: 127.7
[7]
  The results of antibiotic drug inhibiting cancer cell lines (cell viability analysis), H1650: 78.34
BxPC-3
  The results of antibiotic drug inhibiting cancer cell lines (cell viability analysis), BxPC-3: 68.02
[8]
  The results of antibiotic drug inhibiting cancer cell lines (cell viability analysis), A549: 104.9
[9]
  The results of antibiotic drug inhibiting cancer cell lines (cell viability analysis), 786-O: 93.24
[10]
  The results of antibiotic drug inhibiting cancer cell lines (cell viability analysis), LoVo: 100.7
[11]
  The results of antibiotic drug inhibiting cancer cell lines (cell viability analysis), SAS: 89.56
[12]
  The results of antibiotic drug inhibiting cancer cell lines (cell viability analysis), HeLa: 137
[13]
  The results of antibiotic drug inhibiting cancer cell lines (cell viability analysis), MKN-45: 112.3
[14]
  The results of antibiotic drug inhibiting cancer cell lines (cell viability analysis), PC-3: 125.7
T24
  The results of antibiotic drug inhibiting cancer cell lines (cell viability analysis), T24: 92.87
TOV-21G
  The results of antibiotic drug inhibiting cancer cell lines (cell viability analysis), TOV-21G: 83.45
[15]
  The results of antibiotic drug inhibiting cancer cell lines (cell viability analysis), C-33A: 96.19
[16]
  viability: 116%
[17]
  The results of antibiotic drug inhibiting cancer cell lines (cell viability analysis), MDA-MB231: 102.7
NIH: OVCAR-3
  The results of antibiotic drug inhibiting cancer cell lines (cell viability analysis), NIH-OVCAR-3: 105.6
[18]
  The results of antibiotic drug inhibiting cancer cell lines (cell viability analysis), MCF-7: 102.4
U-2OS
  The results of antibiotic drug inhibiting cancer cell lines (cell viability analysis), U2OS: 79.87
